Experimental data taken from ChEMBL document CHEMBL1124619, “Phencyclidine-like effects of tetrahydroisoquinolines and related compounds” (J Med Chem, 1989).

Columns and labels:
[1] = biological target: T1, Sigma non-opioid intracellular receptor 1 (Rattus norvegicus, UniProt Q9R0C9); assay: Inhibition of [3H]- N-allylnormetazocine ([3H]NANM) binding to sigma receptor
[2] = biological target: Glutamate receptor ionotropic, NMDA 2C (Rattus norvegicus) (UniProt Q00961); assay: (§1) Compound was tested for induction of phencyclidine (PCP) like ataxia behavior; format: functional
[3] = biological target: Glutamate receptor ionotropic, NMDA 2C (Rattus norvegicus) (UniProt Q00961); assay: (§2) Compound was tested for induction of phencyclidine (PCP) like stereotyped behavior; format: functional
[4] = biological target: T2, Glutamate receptor ionotropic, NMDA 2C (Rattus norvegicus, UniProt Q00961); assay: Inhibition of [3H]1-[1-(2-thienyl) piperidine ([3H]TCP) binding to PCP receptor; NI = No detectable inhibition of binding at 30 uM
Rattus norvegicus [5] = organism: Rattus norvegicus; assay: as §2; format: functional
[6] = biological target: T2, Glutamate receptor ionotropic, NMDA 2C; assay: Inhibition of [3H]1-[1-(2-thienyl) piperidine ([3H]TCP) binding to PCP receptor
[7] = biological target: T2, Glutamate receptor ionotropic, NMDA 2C; assay: Inhibition of [3H]1-[1-(2-thienyl) piperidine ([3H]TCP) binding to phencyclidine receptor; NI = No detectable inhibition of binding at 30 uM
[8] = biological target: T1, Sigma non-opioid intracellular receptor 1; assay: Inhibition of [3H]- N-allylnormetazocine ([3H]-NANM) binding to sigma receptors; NI = No detectable inhibition of binding at 30 uM
Rattus norvegicus [9] = organism: Rattus norvegicus; assay: as §1; format: functional

Sequence of Glutamate receptor ionotropic, NMDA 2C (Rattus norvegicus) (Q00961 20-1237 limits assumed): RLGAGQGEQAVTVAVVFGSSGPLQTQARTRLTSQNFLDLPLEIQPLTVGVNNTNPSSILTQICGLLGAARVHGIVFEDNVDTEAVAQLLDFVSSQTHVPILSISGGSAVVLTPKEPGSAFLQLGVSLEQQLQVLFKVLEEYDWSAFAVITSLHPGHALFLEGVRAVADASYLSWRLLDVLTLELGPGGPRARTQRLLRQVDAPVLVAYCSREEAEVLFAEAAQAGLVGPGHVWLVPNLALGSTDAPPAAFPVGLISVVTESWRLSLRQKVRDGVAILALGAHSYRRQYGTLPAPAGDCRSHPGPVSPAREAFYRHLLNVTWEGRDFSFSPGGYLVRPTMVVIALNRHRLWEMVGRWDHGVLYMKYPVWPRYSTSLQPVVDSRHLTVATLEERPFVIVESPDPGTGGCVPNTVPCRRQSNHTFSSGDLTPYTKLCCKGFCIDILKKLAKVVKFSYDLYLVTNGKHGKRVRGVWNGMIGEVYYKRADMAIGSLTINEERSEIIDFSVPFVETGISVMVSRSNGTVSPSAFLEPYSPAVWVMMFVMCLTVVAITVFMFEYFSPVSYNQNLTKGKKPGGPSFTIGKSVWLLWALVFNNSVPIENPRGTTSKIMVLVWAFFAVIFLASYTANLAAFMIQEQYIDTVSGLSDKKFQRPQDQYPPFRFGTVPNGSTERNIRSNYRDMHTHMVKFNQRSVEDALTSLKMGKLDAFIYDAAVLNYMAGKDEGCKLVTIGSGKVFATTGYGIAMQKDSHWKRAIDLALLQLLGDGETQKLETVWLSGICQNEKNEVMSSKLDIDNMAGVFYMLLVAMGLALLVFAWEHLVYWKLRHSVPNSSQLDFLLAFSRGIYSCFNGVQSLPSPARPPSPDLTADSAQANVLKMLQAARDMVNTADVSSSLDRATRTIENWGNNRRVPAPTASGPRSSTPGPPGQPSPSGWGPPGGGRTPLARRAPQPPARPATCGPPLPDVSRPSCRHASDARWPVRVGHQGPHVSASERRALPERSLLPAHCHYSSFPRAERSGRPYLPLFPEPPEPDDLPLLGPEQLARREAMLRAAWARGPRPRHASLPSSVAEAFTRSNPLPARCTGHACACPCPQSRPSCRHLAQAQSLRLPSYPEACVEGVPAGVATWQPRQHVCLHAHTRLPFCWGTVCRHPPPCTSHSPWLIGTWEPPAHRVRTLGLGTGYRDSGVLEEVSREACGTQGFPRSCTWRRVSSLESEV
T1 sequence (Q9R0C9 whole entry): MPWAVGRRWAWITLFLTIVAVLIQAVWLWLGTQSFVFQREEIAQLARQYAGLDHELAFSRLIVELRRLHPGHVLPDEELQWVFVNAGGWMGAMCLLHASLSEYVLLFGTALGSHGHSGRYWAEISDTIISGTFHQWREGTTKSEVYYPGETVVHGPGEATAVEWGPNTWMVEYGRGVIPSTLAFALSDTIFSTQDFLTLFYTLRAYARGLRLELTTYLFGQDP
T2 sequence (Q00961 whole entry): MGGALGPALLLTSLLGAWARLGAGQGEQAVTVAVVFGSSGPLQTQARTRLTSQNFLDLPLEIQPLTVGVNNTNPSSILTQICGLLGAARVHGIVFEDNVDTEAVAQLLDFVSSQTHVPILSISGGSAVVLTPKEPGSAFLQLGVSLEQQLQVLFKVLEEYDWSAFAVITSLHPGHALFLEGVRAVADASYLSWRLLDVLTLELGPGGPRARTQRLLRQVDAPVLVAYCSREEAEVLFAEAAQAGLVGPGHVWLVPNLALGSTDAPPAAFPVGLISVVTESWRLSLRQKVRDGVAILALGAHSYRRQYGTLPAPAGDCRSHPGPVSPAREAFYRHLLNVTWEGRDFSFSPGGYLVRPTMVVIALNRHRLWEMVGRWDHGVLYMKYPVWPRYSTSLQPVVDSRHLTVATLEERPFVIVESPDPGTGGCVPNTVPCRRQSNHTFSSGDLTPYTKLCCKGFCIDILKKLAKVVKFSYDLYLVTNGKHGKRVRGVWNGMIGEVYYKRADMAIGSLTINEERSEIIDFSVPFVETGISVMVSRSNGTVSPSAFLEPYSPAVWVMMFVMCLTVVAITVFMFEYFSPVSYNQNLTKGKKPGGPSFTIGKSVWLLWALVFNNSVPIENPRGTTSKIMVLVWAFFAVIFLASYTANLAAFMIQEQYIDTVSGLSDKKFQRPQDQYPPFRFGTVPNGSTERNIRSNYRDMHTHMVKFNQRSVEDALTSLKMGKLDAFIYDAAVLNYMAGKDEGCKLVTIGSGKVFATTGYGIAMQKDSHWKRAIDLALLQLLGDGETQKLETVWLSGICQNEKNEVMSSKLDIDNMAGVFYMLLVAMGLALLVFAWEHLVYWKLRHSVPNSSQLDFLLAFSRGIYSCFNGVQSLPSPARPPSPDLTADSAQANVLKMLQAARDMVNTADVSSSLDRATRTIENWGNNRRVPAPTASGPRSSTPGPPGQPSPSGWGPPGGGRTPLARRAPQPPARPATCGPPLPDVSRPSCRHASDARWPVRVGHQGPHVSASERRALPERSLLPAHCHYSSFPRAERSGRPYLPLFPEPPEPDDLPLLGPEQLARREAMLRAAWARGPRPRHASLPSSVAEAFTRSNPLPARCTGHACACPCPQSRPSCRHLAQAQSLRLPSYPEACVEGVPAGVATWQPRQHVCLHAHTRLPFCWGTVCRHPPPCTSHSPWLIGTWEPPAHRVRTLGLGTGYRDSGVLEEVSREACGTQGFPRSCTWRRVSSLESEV

| SMILES | IC50 [1] [µM] | other results |
| --- | --- | --- |
| c1ccc(CC2NCCc3ccccc32)cc1 (stereo unspecified) | 0.43 | ED50 [2]: 42 mg/kg; ED50 [3]: 26 mg/kg |
| C=CCN1CCc2ccsc2C1c1ccccc1 (stereo unspecified) | 20 | IC50 [4]: Not Active |
| C=CCN1CCc2ccccc2C1C1CCCCC1 (stereo unspecified) | 3.1 |  |
| c1csc(C2(N3CCCCC3)CCCCC2)c1 [TENOCYCLIDINE] | 0.24 |  |
| Clc1ccc(C2NCCc3ccccc32)cc1 (stereo unspecified) | 3.4 |  |
| C=CCN1C(C)Cc2ccccc2C1C (stereo unspecified) | 1.6 |  |
| c1ccc2c(c1)CCNC2c1ccc2ccccc2c1 (stereo unspecified) | 10 |  |
| CN1CCc2ccccc2C1 | 2.7 |  |
| CC(C)CC1NCCc2ccccc21 (stereo unspecified) | 5 |  |
| c1csc(C2NCCc3ccccc32)c1 (stereo unspecified) | 3.8 | ED50 (Rattus norvegicus [5]): 54 mg/kg; IC50 [6]: 7.6 µM |
| Fc1ccc(C2NCCc3ccccc32)cc1 (stereo unspecified) | 1.8 | ED50 [2]: 49 mg/kg; ED50 [3]: 38 mg/kg |
| CC(C)C1NCCc2ccccc21 (stereo unspecified) | 2.5 |  |
| c1ccc(C2NCCCc3ccccc32)cc1 (stereo unspecified) |  | IC50 [7]: Not Active; IC50 [8]: Not Active |
| c1ccc2c(c1)CCNC21CCCCC1 |  | IC50 [7]: Not Active; IC50 [8]: Not Active |
| CCOCCN1CCc2ccccc2C1c1ccccc1 (stereo unspecified) | 5.4 | IC50 [6]: 8.2 µM |
| COc1ccc(C2NCCc3ccccc32)cc1 (stereo unspecified) | 2.2 | IC50 [6]: 2.5 µM |
| c1ccc(C2NCCc3ccccc32)cc1 (stereo unspecified) |  | ED50 [2]: > 20 mg/kg; ED50 [3]: 25 mg/kg |
| c1ccc(C2NCCc3ccsc32)cc1 (stereo unspecified) | 6.3 | ED50 (Rattus norvegicus [5]): > 50 mg/kg; ED50 (Rattus norvegicus [9]): > 50 mg/kg; IC50 [6]: 8.8 µM |
| CC1Cc2ccccc2CN1Cc1ccccc1 (stereo unspecified) | 3.2 |  |
| Cc1ccc(C2NCCc3ccccc32)cc1 (stereo unspecified) | 5.6 |  |

| SMILES | IC50 [1] [µM] | other results |
| --- | --- | --- |
| CC1Cc2ccccc2CN1C (stereo unspecified) | 2.6 |  |
| C=CCN1CCc2ccccc2C1c1ccccc1 (stereo unspecified) | 1.3 |  |
| CCN1CCc2ccsc2C1C(C)C (stereo unspecified) |  | IC50 [6]: 12 µM; IC50 [8]: Not Active |
| c1ccc(C2Cc3ccccc3CN2)cc1 (stereo unspecified) | 2.6 | ED50 [2]: 18 mg/kg; ED50 [3]: 19 mg/kg |
| CN1CCc2ccccc2C1c1ccccc1 (stereo unspecified) | 2.9 |  |
| C=CCN1CCc2ccsc2C1C(C)C (stereo unspecified) | 5 | IC50 [6]: 8.5 µM |
| c1ccc(C2CNCc3ccccc32)cc1 (stereo unspecified) | 4.2 |  |
| C=CCN1CCc2ccccc2C1c1ccc2ccccc2c1 (stereo unspecified) | 11 | IC50 [7]: Not Active |
| CC1NCCc2ccsc21 (stereo unspecified) | 11 | IC50 [6]: > 30 µM |
| c1ccc(-c2cccc3c2CNCC3)cc1 | 2.7 | ED50 [2]: 44 mg/kg; ED50 [3]: 28 mg/kg |
| c1ccc2c(c1)CCNC2C1CCCCC1 (stereo unspecified) | 11 |  |
| CC(C)C1c2sccc2CCN1C (stereo unspecified) | 7.8 | IC50 [6]: 17 µM |
| CC1Cc2ccccc2C(C)N1 (stereo unspecified) | 15 |  |
| c1ccc(CN2CCc3ccccc3C2)cc1 | 7.8 | IC50 [7]: Not Active |
| c1ccc(C2(N3CCCCC3)CCCCC2)cc1 [PHENCYCLIDINE] | 0.53 | ED50 [2]: 6.5 mg/kg; ED50 [3]: 4.7 mg/kg |
| CCN1CCc2ccccc2C1c1ccccc1 (stereo unspecified) | 1.3 |  |
| CC(C)C1NCCc2ccsc21 (stereo unspecified) | 3.8 | IC50 [6]: 17 µM |
| c1ccc(C2NCc3ccccc32)cc1 (stereo unspecified) | > 30 |  |
| COc1ccccc1-c1cccc2c1CNCC2 | 1.8 | ED50 (Rattus norvegicus [5]): 20 mg/kg; ED50 (Rattus norvegicus [9]): 22 mg/kg; IC50 [6]: 0.9 µM |
| C=CCN1CC[C@]2(C)c3ccccc3CC1[C@@H]2C | 0.05 |  |
